# How the values were obtained:
# [1] = test system: external segments of photoreceptor cells; assay: Ascorbate-induced peroxidation of external segments of photoreceptor cells; assay type: biochemical, pig; details: for Inhibition: 30 min of reacting; for Concentration of TBK-active products: 17 mM compound, 0.5 mM ascorbic acid
# Text: The external segments of photoreceptor cells are obtained from pig retinas according to standard procedure, using methods of differential centrifuging in a saccharose density gradient. […] Subsequently, the process was stopped by 15% trichloroacetic acid, and the concentration of TBK-active products has been determined. Samples being free of compound Ic were used as a control.
# In these experiments a comparison of the speed of ascorbate-induced peroxidation of external segments of photoreceptor cells of pig eyes has been carried out, said comparison being determined with respect to the accumulation of TBK-active products in the presence of different compound I salts.
# [2] = Antiradical activity by chemiluminescence (rate constant k7); assay type: physicochemical; details: speed constant of reaction with ethyl-benzene peroxide radicals
# Experimental: The efficiency of 3-hydroxypyridine derivatives as inhibitors of free radical reactions was determined by hemiluminescent method by means of measurement of speed constants of their reaction with ethyl-benzene k7 peroxide radicals.
# The measurements of intensity of chemiluminescence (HL) have been carried out with an apparatus CNK-7, designed and made by IHF RAN USSR. A photomultiplier FAU-38 is used as an optical receiver. The fixed concentration of radicals during oxidation of […] (cumole) is controlled by an initiator being azo-bis-isobutyronitrile.
# In order to increase HL emission the activator chelate Eu (europium tristenoyl triphtoroacetonate with 1,10-phenatroline) has been used that has allowed to conduct measurements at low speed values of radical initiation (W1=10^−8-10^−9 mol/I.s.) and, therefore, at small amounts of added sample. A weighed amount of samples studied was diluted in an suitable solvent (chlorobenzene or acetonitrile) and a small amount of the prepared solution (0.1-0.25 ml) was added to the reaction mixture (5-6 ml), arranged in a temperature-controlled reaction vessel of the HL-device. The change of emission intensity was recorded.
# [3] = test system: acute myocardial ischemia (occlusion of the coronary artery of rats); assay: Sizes of necrosis and ischemia zones in acute myocardial ischemia; assay type: in vivo, rat; details: rats, within 4 hours after occlusion of the coronary artery
# Experimental: The experiments are carried out with non-pedigree male rats having a weight of 250-300 g, which have been anesthetized with sodium ethaminale (40 mg/kg intraperitoneally). A myocardial infarction was modeled for animals, transferred to controlled breathing, by ligation of a descending branch of the left-hand coronary artery to a level of the lower edge of an auricula atrii.
# The sizes of necrosis zones and ischemia zones have been determined within 4 hours after occlusion of the coronary artery by a differential indicator method, the principle of which is based on separate quantitative determination of Evans' blue (indicator of an ischemia zone) and red phormazane (indicator of an necrosis zone).
# [4] = test system: lipofuscin induced cardiolipin photoperoxidation; assay: Inhibition of lipofuscin induced cardiolipin liposome photoperoxidation; assay type: biochemical, human; details: for Concentration of TBK-active products / Inhibition: 2 mM compound
# Experimental: Liposomes are prepared from methanolic solution of cardiolipin (initial concentration: 5 mg/ml) by evaporation of methanol and solubilization of cardiolipin in a phosphate buffer. A mixture comprising a suspension of liposomes and lipofuscin granules, isolated from tissue of a retinal pigmentary epithelium of a human eye, is subjected to irradiation with intensive blue light under constant stirring. Concentration of lipid peroxidation products (TBK-active products) is determined after 20, 40, 60 and 90 minutes. The experimental sample contained 2 mM of a solution of compound Ic, or 2 mM of a solution of mexydole.
structure (smiles),measurement,setting,value
"Cc1cc(C)c(O)c(C)n1.O=C(O)C(=O)O [Compound Ia, 2,4,6-trimethyl-3-oxypyridine oxalate]",Speed of accumulation of TBK-active products for 30 min of reacting,[1]; compound 44 mM,0 nmol/mg
same,Inhibition,[1]; compound 44 mM,100%
"Cc1cc(C)c(O)c(C)n1.O=C(O)CC(=O)O [Compound Ib, 2,4,6-trimethyl-3-oxypyridine malonate]",Speed of accumulation of TBK-active products for 30 min of reacting,[1]; compound 44 mM,0.23 nmol/mg
same,Inhibition,[1]; compound 44 mM,70%
same,Concentration of TBK-active products,[1]; response time 0 min,1 relative units
same,Concentration of TBK-active products,[1]; response time 15 min,2.70 relative units
same,Concentration of TBK-active products,[1]; response time 30 min,5.09 relative units
"Cc1cc(C)c(O)c(C)n1.O=C(O)CC(O)C(=O)O [Compound Id, 2,4,6-trimethyl-3-oxypyridine malate]",Speed of accumulation of TBK-active products for 30 min of reacting,[1]; compound 43 mM,0.1 nmol/mg
same,Inhibition,[1]; compound 43 mM,87%
"CCc1ccc(O)c(C)n1.O=C(O)CCC(=O)O [Mexydole, 2-methyl-6-ethyl-3-hydroxypyridine succinate, reference compound]",k7 × 10^−4,[2],4.5 l/mol × sec
same,Ratio of necrosis zone to ischemia zone,[3]; 26 mg/kg,46 ± 5.6%
same,Ratio of necrosis zone to total mass of the myocardium,[3]; 26 mg/kg,8 ± 1.4%
same,Concentration of TBK-active products,[4]; radiation time 0 min,1.83 nmol/mg lipid
same,Inhibition,[4]; radiation time 0 min,0%
same,Concentration of TBK-active products,[4]; radiation time 20 min,2.84 nmol/mg lipid
same,Inhibition,[4]; radiation time 20 min,5%
same,Concentration of TBK-active products,[4]; radiation time 40 min,3.5 nmol/mg lipid
same,Inhibition,[4]; radiation time 40 min,0%
same,Concentration of TBK-active products,[4]; radiation time 60 min,4.5 nmol/mg lipid
same,Inhibition,[4]; radiation time 60 min,0%
same,Concentration of TBK-active products,[4]; radiation time 90 min,5.0 nmol/mg lipid
same,Inhibition,[4]; radiation time 90 min,7%
same,Inhibiting / protective effect regarding phototoxic action of lipofuscin granules,[4]; result in words,practically did not show an inhibiting effect
O=C(NCCO[N+](=O)[O-])c1cccnc1 [Nicorandile],Ratio of necrosis zone to ischemia zone,[3]; 12 mg/kg,42 ± 5.4%
same,Ratio of necrosis zone to total mass of the myocardium,[3]; 12 mg/kg,10 ± 1.6%
